Laboratory results taken from ChEMBL document CHEMBL2074299, “Hepatic uptake of the novel antifungal agent caspofungin” (Drug Metab Dispos, 2005).
Values belong to the compound of their own block, whether it stands above or below them.

Legend:
Assay type in all cases: functional, cell-based
[1] = target: T1, Solute carrier organic anion transporter family member 1B1 (Homo sapiens, UniProt Q9Y6L6); assay: TP_TRANSPORTER: inhibition of estradiol-17beta-D-glucuronide uptake (Caspofungin:100 uM) in OATP1B1-expressing HeLa cells; set-up: scale not given: the % may be the effect or the level left
T1 sequence (Q9Y6L6 whole entry): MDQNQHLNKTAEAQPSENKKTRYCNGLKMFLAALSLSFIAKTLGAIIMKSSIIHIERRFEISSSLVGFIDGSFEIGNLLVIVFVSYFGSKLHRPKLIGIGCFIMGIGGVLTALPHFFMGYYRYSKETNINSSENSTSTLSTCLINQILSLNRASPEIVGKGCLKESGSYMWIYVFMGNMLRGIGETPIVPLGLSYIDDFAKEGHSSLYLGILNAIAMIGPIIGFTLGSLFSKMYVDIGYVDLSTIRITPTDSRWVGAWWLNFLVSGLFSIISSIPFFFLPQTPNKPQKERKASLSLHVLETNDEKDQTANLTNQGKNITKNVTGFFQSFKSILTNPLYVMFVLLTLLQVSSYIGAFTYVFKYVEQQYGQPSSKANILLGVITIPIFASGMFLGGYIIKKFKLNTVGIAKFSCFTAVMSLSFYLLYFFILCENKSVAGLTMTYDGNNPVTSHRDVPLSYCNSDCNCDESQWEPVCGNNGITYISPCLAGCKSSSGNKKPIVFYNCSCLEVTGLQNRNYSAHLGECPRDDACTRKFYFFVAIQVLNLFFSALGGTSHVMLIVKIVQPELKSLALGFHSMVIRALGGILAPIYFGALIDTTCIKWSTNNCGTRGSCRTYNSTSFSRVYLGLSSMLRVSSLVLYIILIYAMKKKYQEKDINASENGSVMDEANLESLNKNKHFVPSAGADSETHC

[2] = target: T2, OCT1 (solute carrier family 22 member 1) (Homo sapiens, UniProt O15245); assay: TP_TRANSPORTER: inhibition of Tetraethyl ammonium uptake (Caspofungin:100 uM) in OCT1-expressing HeLa cells; set-up: scale not given: the % may be the effect or the level left; conditions: HeLa cells that express OCT1, probe tetraethyl ammonium, read-out: Activity
T2 sequence (O15245 whole entry): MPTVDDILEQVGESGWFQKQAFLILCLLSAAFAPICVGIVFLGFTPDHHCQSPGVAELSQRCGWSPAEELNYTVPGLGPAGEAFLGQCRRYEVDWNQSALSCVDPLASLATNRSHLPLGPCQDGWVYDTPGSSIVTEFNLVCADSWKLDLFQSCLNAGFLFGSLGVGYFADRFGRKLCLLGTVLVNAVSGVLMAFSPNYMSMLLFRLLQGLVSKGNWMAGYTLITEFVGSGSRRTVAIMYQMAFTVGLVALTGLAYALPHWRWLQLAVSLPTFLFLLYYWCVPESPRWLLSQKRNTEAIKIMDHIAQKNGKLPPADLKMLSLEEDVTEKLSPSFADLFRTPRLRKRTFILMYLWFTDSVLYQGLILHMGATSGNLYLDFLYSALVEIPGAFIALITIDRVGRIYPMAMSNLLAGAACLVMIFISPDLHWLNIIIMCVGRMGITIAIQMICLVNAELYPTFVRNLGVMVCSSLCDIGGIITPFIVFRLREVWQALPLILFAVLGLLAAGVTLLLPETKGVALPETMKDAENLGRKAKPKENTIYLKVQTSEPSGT

[3] = target: T3, NTCP (hepatic sodium/bile acid cotransporter) (Homo sapiens, UniProt Q14973); assay: TP_TRANSPORTER: inhibition of Taurocholate uptake (Caspofungin:100 uM) in NTCP-expressing HeLa cells; set-up: scale not given: the % may be the effect or the level left; conditions: HeLa cells that express NTCP, probe taurocholate, read-out: Activity
T3 sequence (Q14973 whole entry): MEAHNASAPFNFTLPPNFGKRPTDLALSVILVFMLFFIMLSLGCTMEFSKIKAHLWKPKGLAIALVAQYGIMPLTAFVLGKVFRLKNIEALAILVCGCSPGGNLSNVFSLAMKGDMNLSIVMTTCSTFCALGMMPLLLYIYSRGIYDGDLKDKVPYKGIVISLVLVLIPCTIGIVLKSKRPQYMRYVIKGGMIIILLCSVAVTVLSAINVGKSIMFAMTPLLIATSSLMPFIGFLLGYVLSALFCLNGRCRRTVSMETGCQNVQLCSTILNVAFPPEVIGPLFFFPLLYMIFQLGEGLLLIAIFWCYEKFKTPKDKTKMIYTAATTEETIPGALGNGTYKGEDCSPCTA

[4] = target: ATP-dependent translocase ABCB1 (Homo sapiens, UniProt P08183); assay: TP_TRANSPORTER: cell accumulation of vinblastine in KB-V1 cells
Sequence of ATP-dependent translocase ABCB1 (P08183 whole entry): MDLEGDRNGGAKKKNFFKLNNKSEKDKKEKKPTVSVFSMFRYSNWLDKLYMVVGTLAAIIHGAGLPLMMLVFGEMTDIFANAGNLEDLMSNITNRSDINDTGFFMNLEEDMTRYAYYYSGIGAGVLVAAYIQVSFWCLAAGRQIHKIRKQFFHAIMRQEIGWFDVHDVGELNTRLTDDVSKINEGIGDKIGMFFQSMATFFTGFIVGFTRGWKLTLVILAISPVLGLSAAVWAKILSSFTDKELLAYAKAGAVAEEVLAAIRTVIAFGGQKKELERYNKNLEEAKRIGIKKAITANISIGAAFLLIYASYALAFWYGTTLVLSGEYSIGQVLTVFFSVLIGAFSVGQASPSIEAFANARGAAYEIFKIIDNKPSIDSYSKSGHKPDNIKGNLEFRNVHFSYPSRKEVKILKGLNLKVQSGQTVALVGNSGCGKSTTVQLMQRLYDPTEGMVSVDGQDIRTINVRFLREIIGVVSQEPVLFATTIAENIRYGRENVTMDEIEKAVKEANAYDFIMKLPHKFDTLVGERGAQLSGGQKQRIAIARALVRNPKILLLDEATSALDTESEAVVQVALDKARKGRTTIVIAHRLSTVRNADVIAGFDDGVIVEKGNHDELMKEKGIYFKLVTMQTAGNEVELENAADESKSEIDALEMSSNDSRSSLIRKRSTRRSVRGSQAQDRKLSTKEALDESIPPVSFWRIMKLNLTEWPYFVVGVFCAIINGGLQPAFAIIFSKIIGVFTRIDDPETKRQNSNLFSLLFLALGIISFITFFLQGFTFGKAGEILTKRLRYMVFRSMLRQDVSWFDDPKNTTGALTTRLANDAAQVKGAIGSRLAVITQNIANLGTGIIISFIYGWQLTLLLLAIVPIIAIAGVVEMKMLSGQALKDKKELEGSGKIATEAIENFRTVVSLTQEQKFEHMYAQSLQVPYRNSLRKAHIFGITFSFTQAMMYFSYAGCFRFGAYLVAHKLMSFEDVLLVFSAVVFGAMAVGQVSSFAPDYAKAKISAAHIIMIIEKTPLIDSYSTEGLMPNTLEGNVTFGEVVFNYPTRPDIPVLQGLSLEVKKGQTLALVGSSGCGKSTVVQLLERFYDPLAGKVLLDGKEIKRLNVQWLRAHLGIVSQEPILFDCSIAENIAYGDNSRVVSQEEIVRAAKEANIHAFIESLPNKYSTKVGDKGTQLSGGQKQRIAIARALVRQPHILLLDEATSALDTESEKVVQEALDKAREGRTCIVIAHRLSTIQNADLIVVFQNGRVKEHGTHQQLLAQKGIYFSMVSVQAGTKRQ

[5] = target: T4, Solute carrier family 22 member 6 (Homo sapiens, UniProt Q4U2R8); assay: TP_TRANSPORTER: inhibition of p-amino hippurate uptake (Caspofungin:100 uM) in OAT1-expressing HeLa cells; set-up: scale not given: the % may be the effect or the level left
T4 sequence (Q4U2R8 whole entry): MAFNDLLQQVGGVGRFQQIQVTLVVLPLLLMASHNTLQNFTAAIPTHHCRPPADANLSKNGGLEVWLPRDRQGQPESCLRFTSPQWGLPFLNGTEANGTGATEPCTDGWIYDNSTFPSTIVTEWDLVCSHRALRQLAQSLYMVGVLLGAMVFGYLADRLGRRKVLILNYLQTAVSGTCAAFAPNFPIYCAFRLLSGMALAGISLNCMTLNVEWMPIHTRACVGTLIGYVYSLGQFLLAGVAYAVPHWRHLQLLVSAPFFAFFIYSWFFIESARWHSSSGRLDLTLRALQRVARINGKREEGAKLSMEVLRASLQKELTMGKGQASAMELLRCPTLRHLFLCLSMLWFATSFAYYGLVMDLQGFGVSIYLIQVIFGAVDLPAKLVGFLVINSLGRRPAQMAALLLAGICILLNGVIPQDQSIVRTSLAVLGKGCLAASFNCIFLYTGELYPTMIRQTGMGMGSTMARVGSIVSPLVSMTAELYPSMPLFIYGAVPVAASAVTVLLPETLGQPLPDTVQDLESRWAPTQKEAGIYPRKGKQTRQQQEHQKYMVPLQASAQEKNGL

[6] = target: T1, Solute carrier organic anion transporter family member 1B1; assay: TP_TRANSPORTER: uptake in OATP1B1-expressing Tet-on HeLa cells
[7] = target: T5, Solute carrier organic anion transporter family member 1B3 (Homo sapiens, UniProt Q9NPD5); assay: TP_TRANSPORTER: uptake in OATP1B3-expressing Tet-on HeLa cells
T5 sequence (Q9NPD5 whole entry): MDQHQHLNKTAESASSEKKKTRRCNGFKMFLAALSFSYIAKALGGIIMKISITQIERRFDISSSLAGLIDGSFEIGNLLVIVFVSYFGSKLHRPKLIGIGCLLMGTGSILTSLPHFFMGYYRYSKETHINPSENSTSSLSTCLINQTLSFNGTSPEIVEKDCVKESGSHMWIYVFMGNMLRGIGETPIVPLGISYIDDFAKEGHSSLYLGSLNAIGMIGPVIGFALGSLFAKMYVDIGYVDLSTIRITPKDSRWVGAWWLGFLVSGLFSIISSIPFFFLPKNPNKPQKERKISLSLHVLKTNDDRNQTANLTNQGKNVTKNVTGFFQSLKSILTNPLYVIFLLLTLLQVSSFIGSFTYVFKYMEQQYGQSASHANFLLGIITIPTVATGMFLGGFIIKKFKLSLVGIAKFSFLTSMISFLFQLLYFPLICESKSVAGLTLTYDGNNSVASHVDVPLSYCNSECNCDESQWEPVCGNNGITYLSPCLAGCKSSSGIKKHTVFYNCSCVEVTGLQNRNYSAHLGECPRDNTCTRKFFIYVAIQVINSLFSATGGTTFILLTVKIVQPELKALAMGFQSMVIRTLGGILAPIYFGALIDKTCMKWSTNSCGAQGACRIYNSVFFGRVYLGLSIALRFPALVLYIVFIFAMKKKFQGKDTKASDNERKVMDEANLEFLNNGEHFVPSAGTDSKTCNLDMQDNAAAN

[8] = target: T4, Solute carrier family 22 member 6; assay: TP_TRANSPORTER: inhibition of p-amino hippurate uptake (Indomethacin:100 uM) in OAT1-expressing HeLa cells; set-up: scale not given: the % may be the effect or the level left
[9] = target: T6, OATP1B1 (solute carrier organic anion transporter family member 1B1) (Homo sapiens, UniProt Q9Y6L6); assay: TP_TRANSPORTER: inhibition of estradiol-17beta-D-glucuronide uptake (Lovastatin:10 uM) in OATP1B1-expressing HeLa cells; set-up: scale not given: the % may be the effect or the level left; conditions: HeLa cells that express OATP1B1, probe estradiol-17beta-D-glucuronide, read-out: Activity
T6 sequence (Q9Y6L6 whole entry): T1 sequence (Q9Y6L6 whole entry)

[10] = target: T2, OCT1 (solute carrier family 22 member 1); assay: TP_TRANSPORTER: inhibition of Tetraethyl ammonium uptake (Quinidine:100 uM) in OCT1-expressing HeLa cells; set-up: scale not given: the % may be the effect or the level left; conditions: HeLa cells that express OCT1, probe tetraethyl ammonium, read-out: Activity
[11] = target: T3, NTCP (hepatic sodium/bile acid cotransporter); assay: TP_TRANSPORTER: inhibition of Taurocholate uptake (Ursodeoxycholate:10 micro;M) in NTCP-expressing HeLa cells; set-up: scale not given: the % may be the effect or the level left; conditions: HeLa cells that express NTCP, probe taurocholate, read-out: Activity

Activity [1]: 5%
activity at 100 µM [2]: 30%
activity at 100 µM [3]: 10%
Activity [4]: inhibitor [+]
Activity [5]: 40%
Activity [6]: substrate [+]
Activity [7]: is not a substrate [-]
SMILES: CC[C@H](C)C[C@H](C)CCCCCCCCC(=O)N[C@H]1C[C@@H](O)[C@@H](NCCN)NC(=O)[C@@H]2[C@@H](O)CCN2C(=O)[C@H]([C@H](O)CCN)NC(=O)[C@H]([C@H](O)[C@@H](O)c2ccc(O)cc2)NC(=O)[C@@H]2C[C@@H](O)CN2C(=O)[C@H]([C@@H](C)O)NC1=O [CASPOFUNGIN]

activity at 10 µM [9]: 40%
SMILES: CC[C@H](C)C(=O)O[C@H]1C[C@@H](C)C=C2C=C[C@H](C)[C@H](CC[C@@H]3C[C@@H](O)CC(=O)O3)[C@H]21 [LOVASTATIN]

The remaining lines, values behind:

SMILES: COc1ccc2c(c1)c(CC(=O)O)c(C)n2C(=O)c1ccc(Cl)cc1 [INDOMETHACIN]
Activity [8]: 20%

SMILES: C=C[C@H]1C[N@@]2CC[C@H]1C[C@@H]2[C@@H](O)c1ccnc2ccc(OC)cc12 [QUINIDINE]
activity at 100 µM [10]: 20%

SMILES: C[C@H](CCC(=O)O)[C@H]1CC[C@H]2[C@@H]3[C@@H](O)C[C@@H]4C[C@H](O)CC[C@]4(C)[C@H]3CC[C@]12C [URSODIOL]
activity at 10 µM [11]: 30%
